Reference: patent US11072617B2, “Bicyclic sulfones and sulfoxides and methods of use thereof” (Genentech, Inc., priority 2017, dated 2021)

Target: human RIP1 kinase domain (2-375) (Homo sapiens (Human), UniProt Q13546)
Assay: RIP1 kinase inhibition biochemical assay (Transcreener ADP, fluorescence polarization)
Details: Ki app from tight-binding Morrison equation; 50 nM enzyme, 50 uM ATP, 2 hours incubation
Method: RIP1 Kinase Inhibition Assays (Biochemical Assay)
The compounds of the present invention were tested for their capacity to inhibit RIP1K activity as described below.
The ability of the receptor interacting protein kinase (RIPK1) to catalyze the hydrolysis of adenosine-5′-triphosphate (ATP) is monitored using the Transcreener ADP (adenosine-5′-diphosphate) assay (BellBrook Labs). Purified human RIP1 kinase domain (2-375) (50 nM) derived from a baculovirus-infected insect cell expression system is incubated with test compounds for 2 hours in 50 mM Hepes buffer (pH 7.5) containing 30 mM MgCl2, 1 mM dithiothreitol, 50 uM ATP, 0.002% Brij-35, and 0.5% dimethyl sulfoxide (DMSO). Reactions are quenched by the addition of 1× Bell Brooks Stop buffer B (20 mM Hepes (ph7.5), 40 mM ethylenediaminetetraacetic acid and 0.02% Brij-35) containing an additional 12 mM EDTA and 55 ug/mL ADP2 antibody and 4 nM ADP-AlexaFluor® 633 tracer. The tracer bound to the antibody is displaced by the ADP generated during the RIP1K reaction, which causes a decrease in fluorescence polarization that is measured by laser excitation at 633 nm with a FP microplate reader M1000. Fractional activity was plotted against test article concentration. Using Genedata Screener software (Genedata; Basel, Switzerland), the data were fit to the tight-binding apparent inhibition constant (Ki^app) Morrison equation [Williams, J. W. and Morrison, J. F. (1979) The kinetics of reversible tight-binding inhibition. Methods Enzymol 63: 437-67]. The following equation was used to calculate fractional activity and Ki^app:
[formula] where [E]T and [I]T are the total concentrations of active enzyme and test article, respectively.
Exemplary compounds of the present invention are provided in Table 1 along with their physiochemical characterization and in vitro RIP1 kinase inhibitory activity data. “Method” in the first column of each table refers to the synthetic method(s) used to prepare each compound as shown in the Examples above. In certain examples, chiral column retention times (min) are provided for certain stereoisomers. Unless otherwise specified, the stereochemistry shown in each structure represents relative configuration of a single stereoisomer, and absolute configuration (i.e., “R” and/or “S”) is arbitrarily assigned. In some embodiments, where the Method is described to include the separation of stereoisomers, a single stereoisomer of a compound of Table 1 is provided.

Chain of human RIP1 kinase domain (2-375) (Q13546 2-375): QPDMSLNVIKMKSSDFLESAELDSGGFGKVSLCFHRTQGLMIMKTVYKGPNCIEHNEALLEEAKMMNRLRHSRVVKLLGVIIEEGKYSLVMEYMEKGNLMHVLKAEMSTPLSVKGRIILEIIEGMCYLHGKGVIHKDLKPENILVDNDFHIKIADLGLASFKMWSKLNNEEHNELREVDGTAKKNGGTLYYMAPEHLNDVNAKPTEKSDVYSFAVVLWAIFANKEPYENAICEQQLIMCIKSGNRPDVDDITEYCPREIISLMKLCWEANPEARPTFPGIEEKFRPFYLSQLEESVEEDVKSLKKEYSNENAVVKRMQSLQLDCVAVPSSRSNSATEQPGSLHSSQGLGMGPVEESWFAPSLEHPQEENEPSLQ

SMILES: O=S(=O)(c1nc2n(n1)[C@H](c1cccc(Cl)c1F)C[C@@H]2F)[C@H]1C[C@@H]1F [Example 219, (5S,7S)-5-(3-chloro-2-fluoro-phenyl)-7-fluoro-2-[(1S,2S)-2-fluorocyclopropyl]sulfonyl-6,7-dihydro-5H-pyrrolo[1,2-b][1,2,4]triazole]
- Ki: 25 nM

SMILES: [O-][S@@+](CF)c1nc2n(n1)[C@H](c1ccccc1Cl)C[C@@H]2F (single isomer, unassigned) [Example 86]
- Ki: < 5 nM

SMILES: [O-][S@+](CC(F)(F)F)c1nc2n(n1)[C@H](c1ccccc1)C[C@@H]2F (single isomer, unassigned) [Example 185]
- Ki: 19 nM

SMILES: N#C[C@H]1C[C@H](S(=O)(=O)c2nc3n(n2)[C@H](c2ccccc2)C[C@@H]3F)C1 [Example 211, trans-3-[[(5S,7S)-7-Fluoro-5-phenyl-6,7-dihydro-5H-pyrrolo[1,2-b][1,2,4]triazol-2-yl]sulfonyl]cyclobutanecarbonitrile]
- Ki: 12 nM

SMILES: [O-][S+](c1nc2n(n1)[C@H](c1ccccc1)C[C@@H]2F)C1CC1(F)F (stereo partly drawn) [Example 117, (5S,7S)-2-((2,2-difluorocyclopropyl)sulfinyl)-7-fluoro-5-phenyl-6,7-dihydro-5H-pyrrolo[1,2-b][1,2,4]triazole]
- Ki: 12 nM

SMILES: CCS(=O)(=O)c1nc2n(n1)[C@H](c1ccccc1F)CC2 (single isomer, unassigned) [Example 8]
- Ki: 290 nM

SMILES: CC(C)(C#N)[S+]([O-])c1nc2n(n1)[C@H](c1ccccc1)C[C@@H]2F (stereo partly drawn) [Example 103, 2-[[(5S,7S)-7-fluoro-5-phenyl-6,7-dihydro-5H-pyrrolo[1,2-b][1,2,4]triazol-2-yl]sulfinyl]-2-methyl-propanenitrile]
- Ki: 150 nM

SMILES: [O-][S+](c1nc2n(n1)[C@H](c1ccccc1)C[C@@H]2F)C(F)(F)F (stereo partly drawn) [Example 132, (5S,7S)-7-fluoro-5-phenyl-2-(trifluoromethylsulfinyl)-6,7-dihydro-5H-pyrrolo[1,2-b][1,2,4]triazole]
- Ki: 11 nM

SMILES: [O-][S@@+](c1nc2n(n1)[C@H](c1ccccc1)C[C@@H]2F)C(F)F [Example 21, (5S,7S)-2-[(S)-difluoromethylsulfinyl]-7-fluoro-5-phenyl-6,7-dihydro-5H-pyrrolo[1,2-b][1,2,4]triazole]
- Ki: 100 nM

SMILES: [O-][S+](CC(F)(F)F)c1nc2n(n1)C(c1ccccc1)CC2 (centres unmarked) [Example 177, 5-Phenyl-2-(2,2,2-trifluoroethylsulfinyl)-6,7-dihydro-5H-pyrrolo[1,2-b][1,2,4]triazole]
- Ki: 57 nM

SMILES: [O-][S+](c1nc2n(n1)[C@H](c1cccc(F)c1)C[C@@H]2F)C(F)F (stereo partly drawn) [Example 54, (5S,7S)-2-((difluoromethyl)sulfinyl)-7-fluoro-5-(3-fluorophenyl)-6,7-dihydro-5H-pyrrolo[1,2-b][1,2,4]triazole]
- Ki: 17 nM

SMILES: O=S(=O)(CF)c1nc2n(n1)[C@H](c1ccccc1)C[C@@H]2F (single isomer, unassigned) [Example 72]
- Ki: 23 nM

SMILES: O=S(=O)(c1nc2n(n1)[C@H](c1ccccc1F)C[C@@H]2F)C(F)F (single isomer, unassigned) [Example 53]
- Ki: 13 nM

SMILES: N#CC[S@+]([O-])c1nc2n(n1)[C@H](c1cccc(F)c1)C[C@@H]2F (single isomer, unassigned) [Example 97]
- Ki: 190 nM

SMILES: O=S(=O)(c1nc2n(n1)[C@H](c1cc(F)cc(F)c1F)C[C@@H]2F)C(F)F (single isomer, unassigned) [Example 60]
- Ki: 7 nM

SMILES: [O-][S@+](CF)c1nc2n(n1)[C@H](c1cc(F)ccc1F)C[C@@H]2F (single isomer, unassigned) [Example 79]
- Ki: 190 nM

SMILES: O=S(=O)(c1nc2n(n1)[C@H](c1cc(F)ccc1F)C[C@@H]2F)C1CC1(F)F (single isomer, unassigned) [Example 122]
- Ki: 12 nM

SMILES: CC(F)S(=O)(=O)c1nc2n(n1)[C@H](c1ccccc1)C[C@@H]2F (stereo partly drawn) [Example 158, (5S,7S)-7-fluoro-2-(1-fluoroethylsulfonyl)-5-phenyl-6,7-dihydro-5H-pyrrolo[1,2-b][1,2,4]triazole]
- Ki: 13 nM

SMILES: O=S(=O)(c1nc2n(n1)[C@H](c1ccccc1)C[C@@H]2F)[C@@H]1CC1(F)F (single isomer, unassigned) [Example 131]
- Ki: 4 nM

SMILES: CC(C)(C#N)S(=O)(=O)c1nc2n(n1)[C@H](c1ccccc1)C[C@@H]2F (single isomer, unassigned) [Example 104]
- Ki: 14 nM

SMILES: O=S(=O)(c1nc2n(n1)[C@H](c1cc(F)cc(F)c1)C[C@@H]2F)[C@H]1C[C@H](F)C1 (single isomer, unassigned) [Example 193]
- Ki: 23 nM

SMILES: O=S(=O)(c1nc2n(n1)[C@H](c1c(F)ccc(F)c1F)C[C@@H]2F)C(F)F (single isomer, unassigned) [Example 59]
- Ki: 7 nM

SMILES: [O-][S@@+](CF)c1nc2n(n1)[C@H](c1cccc(F)c1F)C[C@@H]2F (single isomer, unassigned) [Example 76]
- Ki: < 5 nM

SMILES: [O-][S@+](c1nc2n(n1)[C@H](c1ccccc1)C[C@@H]2F)C(F)F [Example 22, (5S,7S)-2-[(R)-difluoromethylsulfinyl]-7-fluoro-5-phenyl-6,7-dihydro-5H-pyrrolo[1,2-b][1,2,4]triazole]
- Ki: 3 nM

SMILES: O=S(=O)(c1nc2n(n1)[C@H](c1ccccc1)C[C@@H]2F)C(F)(F)F (single isomer, unassigned) [Example 137]
- Ki: 4 nM

SMILES: O=S(=O)(c1nc2n(n1)[C@H](c1cccc(Cl)c1F)C[C@@H]2F)[C@@H]1C[C@H]1F [Example 208, (5S,7S)-5-(3-chloro-2-fluoro-phenyl)-7-fluoro-2-[(1R,2R)-2-fluorocyclopropyl]sulfonyl-6,7-dihydro-5H-pyrrolo[1,2-b][1,2,4]triazole]
- Ki: 7 nM

SMILES: [O-][S@@+](CC1CC1)c1nc2n(n1)[C@H](c1ccccc1)C[C@@H]2F (single isomer, unassigned) [Example 186]
- Ki: 20 nM

SMILES: O=S(=O)(c1nc2n(n1)[C@@H](c1cccc(F)c1F)C[C@H]2F)C(F)(F)F (single isomer, unassigned) [Example 140]
- Ki: 540 nM

SMILES: O=S(=O)(c1nc2n(n1)[C@H](c1cccc(F)c1F)C[C@@H]2F)C(F)(F)F (single isomer, unassigned) [Example 136]
- Ki: < 5 nM

SMILES: CC(C)(F)S(=O)(=O)c1nc2n(n1)[C@H](c1ccccc1)C[C@@H]2F (single isomer, unassigned) [Example 165]
- Ki: 25 nM

SMILES: O=S(=O)(c1nc2n(n1)[C@H](c1ccc(F)cc1)C[C@@H]2F)C(F)F (single isomer, unassigned) [Example 56]
- Ki: 55 nM

SMILES: N#CC1CC1S(=O)(=O)c1nc2n(n1)[C@H](c1ccccc1)C[C@@H]2F (stereo in doubt) [Example 221, (1S,2S)-2-[[(5S,7S)-7-fluoro-5-phenyl-6,7-dihydro-5H-pyrrolo[1,2-b][1,2,4]triazol-2-yl]sulfonyl]cyclopropanecarbonitrile]
- Ki: 18 nM

SMILES: [O-][S@+](CF)c1nc2n(n1)[C@H](c1cccc(F)c1F)C[C@@H]2F (single isomer, unassigned) [Example 77]
- Ki: 280 nM

SMILES: C[S+]([O-])c1nc2n(n1)[C@H](c1ccccc1)C[C@@H]2F (stereo partly drawn) [Example 105, (5S,7S)-7-fluoro-2-methylsulfinyl-5-phenyl-6,7-dihydro-5H-pyrrolo[1,2-b][1,2,4]triazole]
- Ki: 46 nM

SMILES: [O-][S@@+](CF)c1nc2n(n1)[C@H](c1cccc(F)c1)C[C@@H]2F (single isomer, unassigned) [Example 82]
- Ki: < 5 nM

SMILES: [O-][S@+](CF)c1nc2n(n1)[C@H](c1c(F)cccc1F)C[C@@H]2F (single isomer, unassigned) [Example 81]
- Ki: 290 nM

SMILES: N#CC[S@@+]([O-])c1nc2n(n1)[C@H](c1cccc(F)c1)C[C@@H]2F (single isomer, unassigned) [Example 98]
- Ki: 3 nM

SMILES: [O-][S@@+](c1nc2n(n1)[C@H](c1ccccc1)CC2)C(F)F [Example 12, (5S)-2-[(S)-difluoromethylsulfinyl]-5-phenyl-6,7-dihydro-5H-pyrrolo[1,2-b][1,2,4]triazole]
- Ki: 48 nM

SMILES: O=S(=O)(c1nc2n(n1)[C@H](c1cccc(F)c1)C[C@@H]2F)C(F)(F)F (single isomer, unassigned) [Example 135]
- Ki: 4 nM

SMILES: [O-][S+](CC1CC1)c1nc2n(n1)[C@H](c1ccccc1)C[C@@H]2F (stereo partly drawn) [Example 111, (5S,7S)-2-(cyclopropylmethylsulfinyl)-7-fluoro-5-phenyl-6,7-dihydro-5H-pyrrolo[1,2-b][1,2,4]triazole]
- Ki: 44 nM

SMILES: CC(C)[S@+]([O-])c1nc2n(n1)[C@H](c1ccccc1)C[C@@H]2F (single isomer, unassigned) [Example 189]
- Ki: 760 nM
